The numbers were not newly measured in patent US7750039B2, “Indoles are cannabinoid receptor ligands” (priority 2004, dated 2010), which cites them from elsewhere.

The subject of data set [1] is CB1 receptor-mediated CNS side effects. To be noted: at fully efficacious doses.
Data set [2] concerns animal models of pain. To be noted: acute thermal pain, persistent pain, inflammatory pain, neuropathic pain.
The subject of data set [3] is apolipoprotein E knockout mice. To be noted: low doses, inhibited by SR144528.
Data set [4] has as its system CB1 receptor knockout mice.
The test system of data set [5] is CB2 receptor knockout mice.
For data set [6], the system named is microglial. To be noted: in vitro; blocked by SR144528.
In data set [7] the test system is ovariectomy-induced bone loss in mice. To be noted: model for post-menopausal osteoporosis.
For data set [8], the system named is osteoclast.
Data set [9] has as its system rodent models of pain. To be noted: neuropathic, incisional, chronic and acute inflammatory pain.
In data set [10] the test system is rat formalin model of persistent pain.

On to `CN1CCCCC1Cn1cc(C(=O)c2cc([N+](=O)[O-])ccc2I)c2ccccc21` (centres unmarked) [AM-1241], for which, in data set [1], the “CB1 receptor-mediated CNS side effects” value is reported as “devoid of typical CB1 receptor-mediated CNS side effects”. Moreover, the analgesic efficacy result in data set [2] was “robust analgesic efficacy”.
For (−)-Δ^9-Tetrahydrocannabinol [Δ^9-THC], the “progression of atherosclerotic lesions” value in data set [3] is on record as “slowed the progression of atherosclerotic lesions”. Moreover, in data set [4], the analgesic efficacy entry is “retains some analgesic efficacy”. Besides, the immunosuppressive effects entry in data set [5] is recorded as “absent”.
Consider `CCCC(C)(C)c1ccc2c(c1)OC(C)(C)[C@@H]1CC=C(C)C[C@@H]21` [JWH-133], for which the “β-amyloid-induced microglial activation and neurotoxicity” value in [6] was “abrogated”.
Consider SR144528, for which, in data set [7], the ovariectomy-induced bone loss entry is given as “reverse ovariectomy-induced bone loss”. Also, the osteoclast activity result in data set [8] is listed as “inhibit osteoclast activity”.
Take `COc1ccc2c(c1)c(CCN1CCOCC1)c(C)n2C(=O)c1cccc(Cl)c1Cl` [GW405833]: the “CB1 receptor-mediated CNS side effects” value in [1] is recorded as “devoid of typical CB1 receptor-mediated CNS side effects”. Besides, in data set [9], the “efficacy in pain models” value is recorded as “efficacious”.
In the case of `CCCCCCC(C)(C)c1cc(OC)c([C@@H]2C=C(CO)[C@@H]3C[C@H]2C3(C)C)c(OC)c1` [HU-308], in data set [10], the antinociceptive response entry is “elicits an antinociceptive response”.
